Values quoted from earlier work in patent publication US6901278B1, “Methods for reducing the risk of breast cancer in and improving the health of women” (priority 2002, dated 2005).

Settings: following first-pass hepatic metabolism

C[C@]12CC[C@@H]3c4ccc(O)cc4CC[C@H]3[C@@H]1CC[C@@H]2O [Estradiol, 17β-estradiol]
bioavailable fraction of oral estradiol: 5%
